Laboratory results from article PMC11851451 (2025).

Assays:
[1] = system: TTAA hairpin (ESI-MS, CD) (DNA, hairpin) CGTTAAGCTTTCTTAACG; experiment: circular dichroism titration; conditions: Na+ 100 mM; 50 mM Tris-HCl, 1 mM EDTA, pH 7.4, 25 °C; DNA 5 μM
[2] = system: AATT hairpin, 5'-biotin (SPR) (DNA, hairpin) CGAAATTGCCTCTGCAATTCG; experiment: biosensor SPR, steady-state one-site fit; conditions: Na+ 100 mM (Table 1 note 10 mM), 50 mM Tris-HCl, 1 mM EDTA
[3] = system: d(5'-GCTGCGTTAACGCAGC-3')2 (DNA, duplex) GCTGCGTTAACGCAGC; experiment: X-ray crystallography, low resolution; conditions: antiparallel stacked dimer in minor groove; not deposited
[4] = system: TTAA hairpin (ESI-MS, CD) (DNA, hairpin) CGTTAAGCTTTCTTAACG; experiment: competition ESI-MS; conditions: NH4+ 100 mM (ammonium acetate); 10% methanol, pH 6.8; AATT and TTAA 10 μM each, compound 20 μM
[5] = system: AATT hairpin (ESI-MS, CD) (DNA, hairpin) CGAAATTGCCTCTGCAATTCG; experiment: competition ESI-MS; conditions: NH4+ 100 mM (ammonium acetate); 10% methanol, pH 6.8; AATT and TTAA 10 μM each, compound 20 μM
[6] = system: d(5'-GCTGCGTTAACGCAGC-3')2 (DNA, duplex) GCTGCGTTAACGCAGC; experiment: X-ray crystallography, 1.5 Å; conditions: Ca2+ 600 mM (CaCl2, well); HEPES, PEG 400; antiparallel stacked dimer in minor groove
[7] = system: AATT hairpin, 5'-biotin (SPR) (DNA, hairpin) CGAAATTGCCTCTGCAATTCG; experiment: biosensor SPR, one-site kinetic fit; conditions: Na+ 100 mM (Table 1 note 10 mM); 50 mM Tris-HCl, 1 mM EDTA, 0.05% P20, pH 7.4
[8] = system: TATA hairpin, 5'-biotin (SPR) (DNA, hairpin) CCTATAGTTTTCTATAGG; experiment: biosensor SPR; conditions: Na+ 100 mM (Table 1 note 10 mM); printed as 'Very weak binder'; 50 mM Tris-HCl, 1 mM EDTA, 0.05% P20, pH 7.4; up to 1000 nM
[9] = system: TTAA hairpin, 5'-biotin (SPR) (DNA, hairpin) CGTTAAGCTTTCTTAACG; experiment: biosensor SPR, steady-state fit; conditions: Na+ 100 mM (Table 1 note 10 mM); 50 mM Tris-HCl, 1 mM EDTA, 0.05% P20, pH 7.4
[10] = system: TATA hairpin, 5'-biotin (SPR) (DNA, hairpin) CCTATAGTTTTCTATAGG; experiment: biosensor SPR, steady-state fit; conditions: Na+ 100 mM (Table 1 note 10 mM); 50 mM Tris-HCl, 1 mM EDTA, 0.05% P20, pH 7.4
[11] = system: TTAA hairpin, 5'-biotin (SPR) (DNA, hairpin) CGTTAAGCTTTCTTAACG; experiment: biosensor SPR, steady-state two-site fit; conditions: Na+ 100 mM; 50 mM Tris-HCl, 1 mM EDTA, pH 7.4; site 1 of 2; KA2 5.5 × 10^6; Table 1 KA 6.9 × 10^6
[12] = system: AATT hairpin, 5'-biotin (SPR) (DNA, hairpin) CGAAATTGCCTCTGCAATTCG; experiment: biosensor SPR, one-site fit; conditions: Na+ 100 mM (Table 1 note 10 mM); 50 mM Tris-HCl, 1 mM EDTA, 0.05% P20, pH 7.4
[13] = system: TATA hairpin, 5'-biotin (SPR) (DNA, hairpin) CCTATAGTTTTCTATAGG; experiment: biosensor SPR, steady-state two-site fit; conditions: Na+ 100 mM; 50 mM Tris-HCl, 1 mM EDTA, pH 7.4; site 1 of 2; KA2 2.6 × 10^6; Table 1 KA 4.2 × 10^6

Compound	binding [1]	KA ([2]; 0.05% P20, pH 7.4)	binding [4]	binding [5]	KA [9]	other results
N=C(N)c1ccc2[nH]c(-c3ccc(-c4ccc(C(=N)N)s4)s3)nc2c1	yes		weak	yes	1.6e+06 M⁻¹	KA [7]: 2.4e+08 M⁻¹; binding [8]: weak
N=C(N)c1ccc2cc(-c3ccc(-c4ccc(C(=N)N)s4)o3)[nH]c2c1	yes	6.5e+06 M⁻¹				
N=C(N)c1ccc2cc(-c3ccc(-c4ccc(C(=N)N)s4)s3)[nH]c2c1						KA1 [11]: 8.8e+06 M⁻¹; KA [12]: 1.5e+08 M⁻¹; KA1 [13]: 6.9e+06 M⁻¹
N=C(N)c1ccc2nc(-c3ccc(-c4ccc(C(=N)N)o4)s3)[nH]c2c1	yes		weak	yes	1e+06 M⁻¹	KA [10]: 700000 M⁻¹; KA ([2]; 0.05% P20, pH 7.4 buffer, text b17 prints 3.0 × 10^7): 3.5e+07 M⁻¹

Continued, in another order:

binding [1]	KA ([2]; 0.05% P20, pH 7.4)	binding [4]	binding [5]	KA [9]	Compound	other results
yes	2.1e+06 M⁻¹	yes			N=C(N)c1ccc2[nH]c(-c3ccc(-c4ccc(C(=N)N)o4)o3)nc2c1	binding [3]: yes
yes	6.2e+06 M⁻¹	yes	weak		N=C(N)c1ccc2[nH]c(-c3ccc(-c4ccc(C(=N)N)s4)o3)nc2c1	binding [6]: yes
yes	7.3e+06 M⁻¹				N=C(N)c1ccc2cc(-c3ccc(-c4ccc(C(=N)N)o4)o3)[nH]c2c1	
	6.7e+07 M⁻¹			2.8e+06 M⁻¹	N=C(N)c1ccc2cc(-c3ccc(-c4ccc(C(=N)N)o4)s3)[nH]c2c1	KA [10]: 5.2e+06 M⁻¹
